# ± gives the expanded uncertainty stated by the source.
# Details: 101.33 kPa, Liquid, Hot wire method
thermal conductivity (273.15 K) [W/m/K],thermal conductivity (293.15 K) [W/m/K],thermal conductivity (313.15 K) [W/m/K],thermal conductivity (333.15 K) [W/m/K],thermal conductivity (288.15 K) [W/m/K],thermal conductivity (303.15 K) [W/m/K],thermal conductivity (318.15 K) [W/m/K],SMILES
0.141 ± 0.003,0.137 ± 0.003,0.131 ± 0.003,0.126 ± 0.003,–,–,–,C1CCCNCC1 [azacycloheptane]
0.12 ± 0.003,–,–,0.11 ± 0.002,0.117 ± 0.002,0.115 ± 0.002,0.112 ± 0.002,C1CCSC1 [tetrahydrothiophene]

# Continued, molecule first:
SMILES,thermal conductivity (273.15 K) [W/m/K],thermal conductivity (293.15 K) [W/m/K],thermal conductivity (313.15 K) [W/m/K],thermal conductivity (333.15 K) [W/m/K],thermal conductivity (288.15 K) [W/m/K],thermal conductivity (303.15 K) [W/m/K],thermal conductivity (318.15 K) [W/m/K]
CCSCC [3-thiapentane],0.145 ± 0.003,0.14 ± 0.003,0.137 ± 0.003,0.13 ± 0.003,–,–,–
"CN(C)CCN(C)C [N,N,N',N'-tetramethyl-1,2-diaminoethane]",0.154 ± 0.003,0.15 ± 0.003,0.144 ± 0.003,0.135 ± 0.003,–,–,–
CC#N [acetonitrile],0.207 ± 0.004,0.195 ± 0.004,0.183 ± 0.004,–,–,–,–
